Test results reported in PubChem BioAssay AID248 (DTP/NCI, 2004).
Where “and” joins values, the source holds several entries; their conditions need not be identical. Equal values may be shown once. Inconclusive results and toxic doses are left out. Rule as the data show it: active = T/C of 150% or more; inactive = T/C below 125%.

System: L1210 leukemia ip in BDF1 mice, survival T/C
Test: NCI In Vivo Anticancer Drug Screen. Data for tumor model L1210 Leukemia (intraperitoneal) in B6D2F1 (BDF1) mice
Conditions: endpoint: mean survival time, higher = longer survival
Method in brief: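 Each compound was tested against a transplantable tumor grown in mice. The endpoint was survival, with treated animals benchmarked against vehicle controls as a simple ratio.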

[1] = dose: 100.0 mg/kg/injection, schedule: Q04DX003 (ip), vehicle: Klucel (hydroxypropylcellulose) (HPC)
[2] = dose: 200.0 mg/kg/injection, schedule: Q04DX003 (ip), vehicle: Klucel (hydroxypropylcellulose) (HPC)
[3] = dose: 400.0 mg/kg/injection, schedule: Q04DX003 (ip), vehicle: Klucel (hydroxypropylcellulose) (HPC)
[4] = dose: 100.0 mg/kg/injection, schedule: Q01DX001 (ip), vehicle: saline
[5] = dose: 200.0 mg/kg/injection, schedule: Q01DX001 (ip), vehicle: saline
[6] = dose: 400.0 mg/kg/injection, schedule: Q01DX001 (ip), vehicle: saline

Measured: T/C

COC1OC(COC(C)=O)C(OC(C)=O)C(OC(C)=O)[CH]1[Hg][S]c1ccccc1 (stereo unspecified)
inactive: dose: 1.0 mg/kg/injection, schedule: Q01DX015 (ip), vehicle: carboxymethylcellulose (CMC) 105 % of control | dose: 2.0 mg/kg/injection, schedule: Q01DX015 (ip), vehicle: carboxymethylcellulose (CMC) 98 % of control | dose: 4.0 mg/kg/injection, schedule: Q01DX015 (ip), vehicle: carboxymethylcellulose (CMC) 100 % of control | dose: 8.0 mg/kg/injection, schedule: Q01DX015 (ip), vehicle: carboxymethylcellulose (CMC) 94 % of control and 86 % of control | dose: 16.0 mg/kg/injection, schedule: Q01DX015 (ip), vehicle: carboxymethylcellulose (CMC) 109 % of control

Cc1ccc(NC(N)=S)nc1
inactive: [1] 100 % of control | [2] 94 % of control | [3] 99 % of control

CC/C(=C(\CC)c1ccc(OCC(=O)N(CCCl)CCCl)cc1)c1ccc(OCC(=O)N(CCCl)CCCl)cc1
inactive: dose: 5.0 mg/kg/injection, schedule: Q04DX002 (ip), vehicle: saline 105 % of control | dose: 10.0 mg/kg/injection, schedule: Q04DX002 (ip), vehicle: saline 97 % of control | dose: 20.0 mg/kg/injection, schedule: Q04DX002 (ip), vehicle: saline 94 % of control

OCC1SC(n2cnc3c(=S)nc[nH]c32)C(O)C1O (stereo unspecified)
inactive: dose: 200.0 mg/kg/injection, schedule: Q01DX005 (ip), vehicle: saline 103 % of control

Cc1cc(=O)n(C)c[n+]1C
inactive: dose: 50.0 mg/kg/injection, schedule: Q01DX001 (ip), vehicle: saline 93 % of control | dose: 50.0 mg/kg/injection, schedule: Q01DX009 (ip), vehicle: saline 106 % of control | [4] 106 % of control | dose: 100.0 mg/kg/injection, schedule: Q01DX009 (ip), vehicle: saline 109 % of control | [5] 100 % of control | dose: 200.0 mg/kg/injection, schedule: Q01DX009 (ip), vehicle: saline 113 % of control | [6] 96 % of control

c1ccc(NNCC[P+](c2ccccc2)(c2ccccc2)c2ccccc2)cc1
inactive: dose: 15.0 mg/kg/injection, schedule: Q01DX001 (ip), vehicle: carboxymethylcellulose (CMC) 91 % of control

O=C(Cc1cccc2ccccc12)OCCBr
inactive: dose: 222.0 mg/kg/injection, schedule: Q01DX Z (ip), vehicle: methylcellulose (MC) 100 % of control | dose: 333.0 mg/kg/injection, schedule: Q01DX Z (ip), vehicle: methylcellulose (MC) 100 % of control | dose: 500.0 mg/kg/injection, schedule: Q01DX Z (ip), vehicle: methylcellulose (MC) 96 % of control

O=c1cc(-c2ccccc2)sc(-c2ccccc2)c1
inactive: dose: 75.0 mg/kg/injection, schedule: Q04DX003 (ip), vehicle: saline 100 % of control | [1] 103 % of control | dose: 150.0 mg/kg/injection, schedule: Q04DX003 (ip), vehicle: saline 95 % of control | [2] 105 % of control | dose: 300.0 mg/kg/injection, schedule: Q04DX003 (ip), vehicle: saline 92 % of control | [3] 103 % of control

O=C(Cl)COc1cc(Cl)c(Cl)cc1Cl
inactive: dose: 100.0 mg/kg/injection, schedule: Q04DX002 (ip), vehicle: gum acacia 106 % of control | dose: 200.0 mg/kg/injection, schedule: Q04DX002 (ip), vehicle: gum acacia 110 % of control

Cc1cc(Cl)nc2ccc(Cc3ccccc3)cc12
inactive: [4] 102 % of control | [5] 96 % of control | [6] 103 % of control

c1ccc(C2SCCCS2)cc1
inactive: dose: 100.0 mg/kg/injection, schedule: Q01DX009 (ip), vehicle: Klucel (hydroxypropylcellulose) (HPC) 96 % of control | dose: 200.0 mg/kg/injection, schedule: Q01DX009 (ip), vehicle: Klucel (hydroxypropylcellulose) (HPC) 97 % of control | dose: 400.0 mg/kg/injection, schedule: Q01DX009 (ip), vehicle: Klucel (hydroxypropylcellulose) (HPC) 94 % of control

Cc1c(CCC(C)C)oc2cc3oc(CCC(C)C)c(C)c3cc12
inactive: dose: 75.0 mg/kg/injection, schedule: Q01DX001 (ip), vehicle: carboxymethylcellulose (CMC) 96 % of control | dose: 150.0 mg/kg/injection, schedule: Q01DX001 (ip), vehicle: carboxymethylcellulose (CMC) 90 % of control | dose: 300.0 mg/kg/injection, schedule: Q01DX001 (ip), vehicle: carboxymethylcellulose (CMC) 90 % of control

CC1=NN(c2ccccc2)C(=O)C1N=Nc1ccc(S(N)(=O)=O)cc1 (stereo unspecified)
inactive: dose: 100.0 mg/kg/injection, schedule: Q01DX001 (ip), vehicle: carboxymethylcellulose (CMC) 95 % of control | dose: 200.0 mg/kg/injection, schedule: Q01DX001 (ip), vehicle: carboxymethylcellulose (CMC) 93 % of control | dose: 400.0 mg/kg/injection, schedule: Q01DX001 (ip), vehicle: carboxymethylcellulose (CMC) 93 % of control

O=c1ccc2c(ccc3ncccc32)o1
inactive: dose: 50.0 mg/kg/injection, schedule: Q01DX009 (ip), vehicle: carboxymethylcellulose (CMC) 87 % of control | dose: 50.0 mg/kg/injection, schedule: Q04DX003 (ip), vehicle: carboxymethylcellulose (CMC) 117 % of control | dose: 100.0 mg/kg/injection, schedule: Q01DX009 (ip), vehicle: carboxymethylcellulose (CMC) 98 % of control | dose: 100.0 mg/kg/injection, schedule: Q04DX003 (ip), vehicle: carboxymethylcellulose (CMC) 111 % of control | dose: 200.0 mg/kg/injection, schedule: Q04DX003 (ip), vehicle: carboxymethylcellulose (CMC) 93 % of control

CCCCN1CCC(N)=NC1=O
inactive: dose: 100.0 mg/kg/injection, schedule: Q01DX Z (ip), vehicle: saline 100 % of control | dose: 200.0 mg/kg/injection, schedule: Q01DX Z (ip), vehicle: saline 100 % of control

O=S(=O)(F)c1ccc(C[P+](c2ccccc2)(c2ccccc2)c2ccccc2)cc1
inactive: dose: 75.0 mg/kg/injection, schedule: Q01DX001 (ip), vehicle: saline 106 % of control | dose: 150.0 mg/kg/injection, schedule: Q01DX001 (ip), vehicle: saline 105 % of control | dose: 300.0 mg/kg/injection, schedule: Q01DX001 (ip), vehicle: saline 98 % of control

c1ccc([P+](CCN2CCC([P+](c3ccccc3)(c3ccccc3)c3ccccc3)=N2)(c2ccccc2)c2ccccc2)cc1
inactive: dose: 1.56 mg/kg/injection, schedule: Q04DX003 (ip), vehicle: saline 103 % of control | dose: 3.12 mg/kg/injection, schedule: Q04DX003 (ip), vehicle: saline 105 % of control

O=C1C(=O)c2ccccc2C=C1[N+](=O)[O-]
inactive: dose: 5.0 mg/kg/injection, schedule: Q01DX009 (ip), vehicle: saline 92 % of control | dose: 5.0 mg/kg/injection, schedule: Q04DX003 (ip), vehicle: saline 108 % of control | dose: 10.0 mg/kg/injection, schedule: Q01DX009 (ip), vehicle: saline 101 % of control | dose: 10.0 mg/kg/injection, schedule: Q04DX003 (ip), vehicle: saline 96 % of control | dose: 20.0 mg/kg/injection, schedule: Q01DX009 (ip), vehicle: saline 99 % of control | dose: 20.0 mg/kg/injection, schedule: Q04DX003 (ip), vehicle: saline 93 % of control

O=C1OC2(c3ccc(O)cc3Oc3cc(O)ccc32)C2C3CCC(O3)C12 (stereo unspecified)
inactive: dose: 100.0 mg/kg/injection, schedule: Q04DX002 (ip), vehicle: Klucel (hydroxypropylcellulose) (HPC) 100 % of control | dose: 200.0 mg/kg/injection, schedule: Q04DX002 (ip), vehicle: Klucel (hydroxypropylcellulose) (HPC) 118 % of control

O=C(c1ccc(Cl)cc1Cl)C(CS(=O)(=O)O)CS(=O)(=O)O
inactive: dose: 100.0 mg/kg/injection, schedule: Q04DX003 (ip), vehicle: saline with Tween-80 99 % of control | dose: 200.0 mg/kg/injection, schedule: Q04DX003 (ip), vehicle: saline with Tween-80 98 % of control | dose: 400.0 mg/kg/injection, schedule: Q04DX003 (ip), vehicle: saline with Tween-80 100 % of control
